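In this assay, cells in 96-well plates receive the compound at five concentrations for 48 hours. Endpoints are linearly interpolated between the surrounding concentrations. Here, GI50 denotes the concentration required for 50% inhibition of growth. TGI is the concentration that stops growth completely.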
Columns and labels:
Experiment in all cases: DTP human tumour cell line panel, 48 h
HCC-2998 colon = tested on: HCC-2998 colon
HS 578T breast = tested on: HS 578T breast
KM12 colon = tested on: KM12 colon
MDA-MB-231 breast = tested on: MDA-MB-231 breast
OVCAR-5 ovarian = tested on: OVCAR-5 ovarian
OVCAR-8 ovarian = tested on: OVCAR-8 ovarian
RPMI-8226 leukemia = tested on: RPMI-8226 leukemia
SR leukemia = tested on: SR leukemia
SW-620 colon = tested on: SW-620 colon
UO-31 renal = tested on: UO-31 renal

Compound | GI50 (HCC-2998 colon) [µM] | TGI (HCC-2998 colon) [µM] | GI50 (HS 578T breast) [µM] | TGI (HS 578T breast) [µM] | GI50 (KM12 colon) [µM] | TGI (KM12 colon) [µM] | GI50 (MDA-MB-231 breast) [µM] | TGI (MDA-MB-231 breast) [µM] | GI50 (OVCAR-5 ovarian) [µM] | TGI (OVCAR-5 ovarian) [µM] | GI50 (OVCAR-8 ovarian) [µM] | TGI (OVCAR-8 ovarian) [µM] | GI50 (RPMI-8226 leukemia) [µM] | TGI (RPMI-8226 leukemia) [µM] | GI50 (SR leukemia) [µM] | TGI (SR leukemia) [µM] | GI50 (SW-620 colon) [µM] | TGI (SW-620 colon) [µM] | GI50 (UO-31 renal) [µM] | TGI (UO-31 renal) [µM]
NC(=O)CNc1ccc([As]=[As]c2ccc(NCC(N)=O)cc2)cc1 (centres undefined) | 13.9 | 29.7 | 1.45 | 21.1 | 13.7 | 33.2 | 3.27 | 21 | 4.42 | 20.2 | 4.65 | > 100 | 2.61 | 10.8 | 2.25 | > 100 | 2.54 | 15.4 | 8.21 | 24.5
CC1(C)N=C(N)N=C(N)N1c1cccc(OCCOc2cccc([N+](=O)[O-])c2)c1 | 2.81 | > 100 | 33.5 | > 100 | 1.37 | > 100 | 10.2 | > 100 | 1.88 | > 100 | 38.6 | > 100 | 4.01 | > 100 | 0.543 | > 100 | 1.93 | > 100 | > 100 | > 100
CNCCn1c(=O)c2cc(OC)c(OC)cc2c2cnc3cc4c(cc3c21)OCO4 | 0.0484 | 1.79 | 1.68 | 4.44 | 0.0483 | 1.6 | 0.19 | 1.67 | 0.0259 | 0.304 | < 0.01 | 1.34 | 0.0254 | 0.915 | < 0.01 | – | 0.0121 | 1.95 | < 0.01 | 1.21
COC(=O)[C@]12CC[C@@H](C)[C@H](C)[C@@H]1C1=CC[C@@H]3[C@@]4(C)C(C=O)=C[C@@](C)(COC(=O)c5ccco5)[C@@H]4[C@H](O)C[C@@]3(C)[C@]1(C)CC2 | 1.92 | 3.71 | 2.72 | 8.96 | 1.83 | 4.5 | 2.49 | 5.83 | 3 | 9.72 | 2.9 | 13.4 | 1.76 | 6.7 | 1.8 | 5.13 | 2.86 | 8.32 | 1.66 | 3.48
O=C(NC1CCCCC1)c1ccc(Nc2ncnc3c2cnn3-c2ccccc2)cc1 | > 100 | > 100 | 3.37 | 34.2 | 57.8 | > 100 | 5.09 | 21.9 | 15.2 | 95.2 | 3.87 | 19.3 | > 100 | > 100 | 11.6 | 49.1 | > 100 | > 100 | 23.9 | > 100
COc1ccc(-c2noc(N)c2-c2cc(OC)c3c(c2)OCO3)cc1 | 3.68 | > 33.9 | 2.61 | 24.4 | 1.97 | > 100 | 2.76 | 60.9 | 5.63 | > 82.2 | 3.98 | > 100 | 3.25 | > 49.9 | 0.523 | > 51.2 | 0.677 | > 100 | 7.39 | > 100
O=C1c2ccccc2C(=O)c2c(NCCN=Cc3ccccc3O)cccc21 | 7.82 | 22.6 | 1.72 | 4.88 | 2.93 | 8.37 | 7.91 | > 80.6 | 14.2 | 99.3 | 4.93 | 22.1 | 0.714 | 2.62 | 0.944 | > 100 | 2.14 | 7.07 | 2.51 | 11
CS(=O)(=O)CS(=O)(=O)OCCCl | – | 727 | – | 1790 | – | 1120 | – | 918 | – | 1260 | – | 1270 | – | 3170 | – | 876 | – | 1100 | – | 1080
COc1ccc(-c2cc(Nc3ccnc(N4CCOCC4)n3)on2)cc1 | 0.461 | 10.6 | 0.303 | 9.8 | 0.0893 | 12.3 | 0.339 | 22.5 | 0.684 | 20.8 | 0.443 | 11.4 | 0.416 | 18.6 | 0.0566 | > 100 | 0.0914 | 18.5 | 0.742 | 13.8
Oc1ccc(/C=C/c2cc(O)cc3c2C(c2cc(O)cc(O)c2)C(c2ccc(O)c(O)c2)O3)cc1 (centres undefined) | – | 57.4 | – | 88.8 | – | 87.4 | – | 68 | – | > 100 | – | 68.2 | – | 40.6 | – | 55.4 | – | > 100 | – | > 100
O=C(NNc1cnccn1)c1nc2cc(F)ccc2n2cccc12 | 2.88 | > 100 | 2.83 | > 100 | 0.509 | > 100 | 0.597 | > 100 | 0.828 | > 100 | 0.429 | > 100 | 0.518 | > 100 | 0.247 | > 100 | 0.397 | > 100 | 0.261 | > 100
C=C1C(O)C2C(=C(C)C13CC3)C(=O)C(C)(C)C2OC (centres undefined) | > 100 | > 100 | 59.6 | > 100 | > 100 | > 100 | 53.4 | > 100 | > 100 | > 100 | 71.9 | > 100 | 41.3 | > 100 | 38 | > 100 | > 100 | > 100 | > 100 | > 100
O=C(N/N=C/c1ccc(O)cc1O)c1cccnc1 | 4.72 | > 100 | 7.26 | 82.1 | 3.62 | > 100 | 3.68 | > 100 | 14 | > 100 | 2.5 | 96.3 | 4.13 | > 100 | 3.21 | > 100 | 4.34 | > 100 | 1.46 | > 100

From PubChem BioAssay (NCI)
